# Measurements as given in PubChem BioAssay AID1918939 (Molecular Pharmacology Branch, DTP, NCI, 2023).
# Test system: 653999-131-R-J2-PDC complex spheroid viability
# Test: Anticancer human tumor 653999-131-R-J2-PDC patient-derived lung adenocarcinoma cell line growth inhibition
# Conditions: for IC50: curve of first compound; for viability, T/C: stronger effect = lower value
# Text: Multicellular complex tumor spheroid response to LSD1 Inhibitor Iadademstat in combination with a variety of drugs and investigational agents in selected tumor cell lines
# The current study was undertaken to assess response to LSD1 inhibitors in combination with standard-of-care drugs and investigational agents in solid tumor complex spheroid models as well as in the K-562 leukemia. Complex spheroids include a stromal component modeled by human endothelial cells (HUVEC) and fibroblasts modeled by human mesenchymal stem cells (MSCs). The concentration ranges selected for each drug and investigational agent were based upon clinically achievable concentrations if the clinical Cmax of the agent was known.
# Compounds. The drugs and investigational agents used in this study are listed on Table 1. All of the agents used, including staurosporine (NSC755774) and gemcitabine (NSC613327), were obtained from the Developmental Therapeutics Program, NCI. FDA-approved anticancer drugs are available from the NCI at http://dtp.nci.nih.gov/branches/dscb/oncology_drugset_explanation.html. Drugs and investigational agents were >95% pure by proton nuclear magnetic resonance (NMR) and liquid chromatography/mass spectrometry (LC/MS). Stock solutions were prepared at 400x in DMSO, stored at -70 degrees C, and diluted in fresh medium prior to their use. The final concentration of DMSO in cell culture wells never exceeded 0.25% (v/v). The FDA-approved anticancer drug set is available from the Developmental Therapeutics Program at https://dtp.cancer.gov/organization/dscb/obtaining/available_plates.htm. All drugs and investigational agents were tested over a range starting from a high concentration at or near the clinical Cmax and decreasing in half-log increments. If the clinical Cmax for an agent had not been determined, the highest concentration tested was 10 microM.
# Cell Lines. The patient-derived cancer cell (PDC) lines: 292921-168-R-J2-PDC, K24384-001-R-PDC, and 521955-158-R2-J5-PDC pancreatic carcinomas, 556581-035-R-J1 ovarian carcinoma, 324938-238-R-J1-PDC, 855422-203-R-J1-PDC and 883617-216-R-J1-PDC urothelial bladder carcinomas, 743489-274-T-PDC renal cell carcinoma, 138582-R-J1 Merkel cell tumor, K60290-347-R-J1 and K57222-313-R-J1-PDC glioblastomas, 653999-131-R-J2-PDC, LG0703-F948-PDC, and 349418-098-R-PDC non-small cell lung carcinomas, 885512-296-R-J2-PDC, 171881-019-R-J1-PDC breast carcinomas and 186277-243-T-J2-PDC and 233499-124-R-J2-PDC colon carcinomas were obtained from the NCI Patient-Derived Models Repository (PDMR, https://pdmr.cancer.gov). The established cell lines NCI/ADR-RES (RRID:CVCL_14520 and OVCAR-5 (RRID:CVCL_1628) ovarian carcinomas, 786-O (RRID:CVCL_1051) and A498 (RRID:CVCL_A498) renal cell carcinoma, NCI-H211 (ATCC, cat. CRL-5824; RRID:CVCL_1529), NCI-H196 (ATCC, cat. CRL-5823, RRID:CVCL_1509), SW 1271 (ATCC, cat. CRL-2177, RRID:CVCL_1716) and NCI-H1876 (ATCC, cat. CRL-5902, RRID:CVCL_1503) small cell lung carcinomas, MDA-MB-231 (RRID:CVCL_0062) and MDA-MB-468 (RRID:CVCL_0419)breast carcinomas (10-12). Pooled donor human umbilical vein endothelial cells (HUVEC, Lonza, cat. CC-2519) and human mesenchymal stem cells (hMSC, Lonza, cat. PT-2501) were purchased from Lonza (Walkersville, MD).
# Cell Culture. All cells were maintained in an incubator at 37 degrees C and 5% CO2 with 95% humidity. The PDC lines were cultured according to standard operating procedures established by the NCI PDMR (https://pdmr.cancer.gov). Briefly all PDCs were thawed and cultured in Matrigel-coated flasks prepared with a working solution of 1X Ham's F-12 nutrient mix, without supplementation (Invitrogen, Waltham, MA, cat. 11765054), 100 U/mL penicillin-streptomycin (Invitrogen, cat. 15140122), and 2.5% Matrigel (Corning Inc., Corning, NY, cat. 354248) for the first three passages. […]
# [1] = second compound 0.1 µM, first compound 0.000949 µM
# [2] = second compound 0.1 µM, first compound 0.003 µM
# [3] = second compound 0.1 µM, first compound 0.00949 µM
# [4] = second compound 0.1 µM, first compound 0.03 µM
# [5] = second compound 0.1 µM, first compound 0.0949 µM
# [6] = second compound 0.1 µM, first compound 0.3 µM
# [7] = second compound 0.316 µM, first compound 0.000949 µM
# [8] = second compound 0.316 µM, first compound 0.003 µM
# [9] = second compound 0.316 µM, first compound 0.00949 µM
# [10] = second compound 0.316 µM, first compound 0.03 µM
# [11] = second compound 0.316 µM, first compound 0.0949 µM
# [12] = second compound 0.316 µM, first compound 0.3 µM
# [13] = second compound 1 µM, first compound 0.000949 µM
# [14] = second compound 1 µM, first compound 0.003 µM
# [15] = second compound 1 µM, first compound 0.00949 µM
# [16] = second compound 1 µM, first compound 0.03 µM
# [17] = second compound 1 µM, first compound 0.0949 µM
# [18] = second compound 1 µM, first compound 0.3 µM
# [19] = second compound 3.16 µM, first compound 0.000949 µM
# [20] = second compound 3.16 µM, first compound 0.003 µM
# [21] = second compound 3.16 µM, first compound 0.00949 µM
# [22] = second compound 3.16 µM, first compound 0.03 µM
# [23] = second compound 3.16 µM, first compound 0.0949 µM
# [24] = second compound 3.16 µM, first compound 0.3 µM
# [25] = second compound 10 µM, first compound 0.000949 µM
# [26] = second compound 10 µM, first compound 0.003 µM
# [27] = second compound 10 µM, first compound 0.00949 µM
# [28] = second compound 10 µM, first compound 0.03 µM
# [29] = second compound 10 µM, first compound 0.0949 µM
# [30] = second compound 10 µM, first compound 0.3 µM
# 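Also: spheroids exposed to agents for seven days before readout.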
structure (smiles),measurement,setting,value
CCc1c2c(nc3ccc(O)cc13)-c1cc3c(c(=O)n1C2)COC(=O)[C@]3(O)CC + NC1CC1c1ccc(-c2cccc(O)c2)cc1,IC50,second compound 0.1 µM,< 0.949 nM
same,IC50,second compound 0.316 µM,< 0.949 nM
same,IC50,second compound 1 µM,< 0.949 nM
same,IC50,second compound 3.16 µM,< 0.949 nM
same,IC50,second compound 10 µM,< 0.949 nM
same,"viability, T/C",[1],27.2%
same,"viability, T/C",[2],18%
same,"viability, T/C",[3],11.7%
same,"viability, T/C",[4],5.92%
same,"viability, T/C",[5],6.24%
same,"viability, T/C",[6],9.54%
same,"viability, T/C",[7],27.7%
same,"viability, T/C",[8],21%
same,"viability, T/C",[9],11.2%
same,"viability, T/C",[10],5.65%
same,"viability, T/C",[11],6.29%
same,"viability, T/C",[12],9.28%
same,"viability, T/C",[13],25.6%
same,"viability, T/C",[14],19.9%
same,"viability, T/C",[15],10.6%
same,"viability, T/C",[16],5.85%
same,"viability, T/C",[17],6.63%
same,"viability, T/C",[18],10.5%
same,"viability, T/C",[19],21.4%
same,"viability, T/C",[20],17.2%
same,"viability, T/C",[21],10.3%
same,"viability, T/C",[22],5.97%
same,"viability, T/C",[23],7.51%
same,"viability, T/C",[24],9.23%
same,"viability, T/C",[25],23.3%
same,"viability, T/C",[26],13.5%
same,"viability, T/C",[27],12.3%
same,"viability, T/C",[28],6.19%
same,"viability, T/C",[29],4.83%
same,"viability, T/C",[30],9.59%
Nc1ccn(C2OC(CO)C(O)C2(F)F)c(=O)n1 (stereo not given) + NC1CC1c1ccc(-c2cccc(O)c2)cc1,IC50,second compound 0.1 µM,133 nM
same,IC50,second compound 0.316 µM,37.9 nM
same,IC50,second compound 1 µM,24.9 nM
same,IC50,second compound 3.16 µM,68.3 nM
same,IC50,second compound 10 µM,> 300 nM
same,"viability, T/C",[1],105%
same,"viability, T/C",[2],92.4%
same,"viability, T/C",[3],67.2%
same,"viability, T/C",[4],61.3%
same,"viability, T/C",[5],43.6%
same,"viability, T/C",[6],52.2%
same,"viability, T/C",[7],82.1%
same,"viability, T/C",[8],77.2%
same,"viability, T/C",[9],75.6%
same,"viability, T/C",[10],51.2%
same,"viability, T/C",[11],43.5%
same,"viability, T/C",[12],47%
same,"viability, T/C",[13],75.1%
same,"viability, T/C",[14],80.9%
same,"viability, T/C",[15],64.7%
same,"viability, T/C",[16],48.6%
same,"viability, T/C",[17],45.2%
same,"viability, T/C",[18],44.9%
same,"viability, T/C",[19],83.4%
same,"viability, T/C",[20],74.1%
same,"viability, T/C",[21],63.4%
same,"viability, T/C",[22],57.4%
same,"viability, T/C",[23],47.3%
same,"viability, T/C",[24],39.7%
same,"viability, T/C",[25],76%
same,"viability, T/C",[26],70.8%
same,"viability, T/C",[27],68.9%
same,"viability, T/C",[28],53.1%
same,"viability, T/C",[29],55.4%
same,"viability, T/C",[30],51.5%
O=C(c1cc(Cc2n[nH]c(=O)c3ccccc23)ccc1F)N1CCN(C(=O)C2CC2)CC1 + NC1CC1c1ccc(-c2cccc(O)c2)cc1,IC50,second compound 0.1 µM,> 10000 nM
same,IC50,second compound 0.316 µM,> 10000 nM
same,IC50,second compound 1 µM,> 10000 nM
same,IC50,second compound 3.16 µM,> 10000 nM
same,IC50,second compound 10 µM,> 10000 nM
same,"viability, T/C","second compound 0.1 µM, first compound 0.0316 µM",102%
same,"viability, T/C","second compound 0.1 µM, first compound 0.1 µM",106%
same,"viability, T/C","second compound 0.1 µM, first compound 0.316 µM",95.1%
same,"viability, T/C","second compound 0.1 µM, first compound 1 µM",89.1%
same,"viability, T/C","second compound 0.1 µM, first compound 3.16 µM",76.5%
same,"viability, T/C","second compound 0.1 µM, first compound 10 µM",66.1%
same,"viability, T/C","second compound 0.316 µM, first compound 0.0316 µM",93.8%
same,"viability, T/C","second compound 0.316 µM, first compound 0.1 µM",90.7%
same,"viability, T/C","second compound 0.316 µM, first compound 0.316 µM",82.6%
same,"viability, T/C","second compound 0.316 µM, first compound 1 µM",72%
same,"viability, T/C","second compound 0.316 µM, first compound 3.16 µM",59.9%
same,"viability, T/C","second compound 0.316 µM, first compound 10 µM",65.4%
same,"viability, T/C","second compound 1 µM, first compound 0.0316 µM",86.1%
same,"viability, T/C","second compound 1 µM, first compound 0.1 µM",80.4%
same,"viability, T/C","second compound 1 µM, first compound 0.316 µM",90.8%
same,"viability, T/C","second compound 1 µM, first compound 1 µM",64.3%
same,"viability, T/C","second compound 1 µM, first compound 3.16 µM",75.3%
same,"viability, T/C","second compound 1 µM, first compound 10 µM",63.5%
same,"viability, T/C","second compound 3.16 µM, first compound 0.0316 µM",78.5%
same,"viability, T/C","second compound 3.16 µM, first compound 0.1 µM",87.2%
same,"viability, T/C","second compound 3.16 µM, first compound 0.316 µM",87%
same,"viability, T/C","second compound 3.16 µM, first compound 1 µM",82.5%
same,"viability, T/C","second compound 3.16 µM, first compound 3.16 µM",71.4%
same,"viability, T/C","second compound 3.16 µM, first compound 10 µM",64.6%
same,"viability, T/C","second compound 10 µM, first compound 0.0316 µM",92.8%
same,"viability, T/C","second compound 10 µM, first compound 0.1 µM",79.7%
same,"viability, T/C","second compound 10 µM, first compound 0.316 µM",87.9%
same,"viability, T/C","second compound 10 µM, first compound 1 µM",78.3%
same,"viability, T/C","second compound 10 µM, first compound 3.16 µM",71.7%
same,"viability, T/C","second compound 10 µM, first compound 10 µM",58.5%
